# Earlier results, collected in US20100247673A1, “Thyroid protection in sickle cell anemia treatment” (priority 2009, published 2010).
# Tested on: erythrocytes
# Settings: about 4 mols incorporated per mol of hemoglobin tetramer
structure (smiles),measurement,value
N#C[O-].[K+] [potassium cyanate],erythrocytes prevented from sickling,up to 80%
